Test results as given in patent US6521643B1, “Pyridine compounds and their pharmaceutical use” (Fujisawa Pharmaceutical Co., Ltd., priority 1999, dated 2003).
Structures can show the parent of a compound that is named as a salt.

Key:
[1] = target: T1, Nitric Oxide Synthase (NOS) (Rattus norvegicus, UniProt P29476); assay: Binding assay using nitric oxide synthase (NOS), crude preparation from rat brain cytosol, [3H]Na radioligand; settings: test compound 10^−4M, brain cytosol of male SD rats, 10 nM [^3H]Na, 27° C., 90 minutes; for inhibition: read-out: Inhibition (%) of specific binding
T1 construct: each drug was incubated with the brain cytosol (200 μg protein/tube); from tissue; host or cells: whole brain (including cerebellum) of male SD rats, cytosolic supernatant (48,000 x g), passed through Dowex AG50WX-8
Method: Test: Binding Assay Using Nitric Oxide Synthase (NOS)
A crude preparation of NOS was obtained from brains of male SD rats. The whole brain (including cerebellum) was homogenized with 5 volume (W/V) of 50 mM Tris buffer (pH 7.0 at 4° C.) and centrifuged at 48,000×g for 20 minutes. The pellet was discarded and the supernatant was passed through ¼ volume (V/V) of Dowex AG50WX-8 resin (Na^+ form), in order to remove endogenous arginine. The supernatant was collected, the pH was adjusted to 7.0 at 22° C., and this cytosolic preparation was frozen and stored at −80° C. until required. In the binding assay, each drug was incubated with the brain cytosol (200 μg protein/tube) in 0.15 ml (final volume) of 50 mM Tris buffer containing 10 μM CaCl2 and 10 nM [^3H]Na (Amersham, UK). Incubation was performed at 27° C. for 90 minutes and terminated by vacuum filtration through 0.3% polyethyleneimine pretreated GF/B glass fibre filters which were subsequently washed with distilled water (4° C., 4 ml×4). Nonspecific binding was defined by use of […] Na. Data are expressed as inhibition % of specific binding.

Row | SMILES | inhibition [1] [%] | further results
1 | COc1ccnc(-c2sc(NC(=N)N)nc2C)c1 [(a), 2-Guanidino-4-methyl-5-(4-methoxypyridin-2-yl)thiazole] | 99 | –
2 | COc1ccnc(-c2ccc(C)c(NC(=N)N)c2)c1.Cl.Cl [(b), (5-(4-Methoxypyridin-2-yl)-2-methylphenyl)guanidine dihydrochloride] | – | Inhibition (%) of specific binding [1]: 98.9%
3 | CCSC(=N)Nc1cccc(-c2cc(OC)ccn2)c1 [(c), N-(3-(4-Methoxypyridin-2-yl)phenyl)-S-ethylisothiourea dihydrochloride] | 100 | –
4 | COc1ccnc(-c2ccc3ccc(N)nc3c2)c1 [(d), 2-Amino-7-(4-methoxypyridin-2-yl)quinoline dihydrochloride] | 99.3 | –
5 | Cc1ccnc(-c2ccc3ccc(N)nc3c2)c1 [(e), 2-Amino-7-(4-methylpyridin-2-yl)quinoline dihydrochloride] | 98 | –
6 | CNc1ccc2ccc(-c3cc(OC)ccn3)cc2n1 [(f), 7-(4-Methoxypyridin-2-yl)-2-methylaminoquinoline dihydrochloride] | 99.4 | –
7 | Cc1ccnc(C(O)c2sc(NC(=N)N)nc2C)c1 (centres unmarked) [Example 24, N-(5-(hydroxy-(4-methylpyridin-2-yl)methyl)-4-methylthiazol-2-yl)guanidine] | – | melting point: 150.5 to 151.5 °C
8 | CC(=O)NC(c1cc(C)ccn1)c1sc(NC(=N)N)nc1C (centres unmarked) [Example 26, N-(5-(acetylamino-(4-methylpyridin-2-yl)methyl)-4-methylthiazol-2-yl)-guanidine] | – | melting point: 239 to 240 °C
